This is an account of results in paper PMC10897151, “Nature-inspired peptide of MtDef4 C-terminus tail enables protein delivery in mammalian cells” (Scientific Reports, 2024).

Peptide text beside a SMILES is read from it. Bounds are passed on as bounds.

Test [1] relates to HeLa cells. The test is described as follows: Confocal microscopy imaging of cellular penetration. It is filed as cell-based. Here is the method: To this end, we explored the internalization kinetics of FITC-GMA4C into the cells. At the outset, we performed a dose–response investigation using a twofold dilution, identifying optimal conditions at 6uM for peptide visualization (Figs. 2 and 3). Subsequently, HeLa cells were cultured with 6 µM FITC-GMA4C and imaged at different time points.
Figure 4 Time response of FITC-GMA4C uptake into HeLa cells. (A) Cells were cultured with 6 µM of FITC-GMA4C at 37 °C, followed by PBS washing and subsequent fixation with 4% PFA and post-fixation staining with DAPI. Images of cells were taken by confocal microscopy visualizing FITC-GMA4C (green) and DAPI (Blue). Scale bar: 100 µm. (B) Quantification of FITC-GMA4C fluorescence intensity. Bars show the mean green fluorescence intensity relative to non-treated cells and normalized to the number of cells. Values were measured using the Color Threshold tab in Fiji. […]
Given the remarkable rate and efficiency of the free peptide cellular penetration, we further investigated its capacity to enhance the delivery of large biomolecules into cells. For that purpose, we evaluated the cellular permeabilization of recombinant GFP, expressed and purified with an N- or C-terminus fusion of GMA4C: GFP, GMA4C-GFP and GFP-GMA4C, respectively (Fig. S1). […] Subsequently, we quantified the cellular uptake of the exogenous proteins using flow cytometry analysis. […]

Test [2] deals with HeLa cells. The test is described as follows: Flow cytometry analysis of cellular uptake. It is filed as cell-based. Particulars: free FITC 25 µM, 2 h, trypsin treated. As to the method:
To evaluate the capability of GMA4C to penetrate mammalian cells, we synthesized the peptide with a fluorescein isothiocyanate (FITC) fluorescent probe at its N-terminus (FITC-GMA4C). Subsequently, we incubated HeLa cells with varying concentrations of FITC-GMA4C for two hours. After thorough washing, we visualized the cells using confocal microscopy imaging. Remarkably, we observed the accumulation and intracellular localization of FITC-GMA4C within the cells, even at low micromolar concentrations (Figs. 3A,B, and S7A). The entry of FITC-GMA4C is depicted by green dots within the cells, indicating effective peptide transduction. […] To ensure that the detected fluorescence signal originated only from peptides internalized within the cells and not from peptides bound to the cell membrane, we washed the cells and subjected them to trypsin treatment at 37 °C. […]
Figure 3 Characterization of GMA4C penetration into HeLa cells by confocal imaging and flow cytometry analysis. […] (B) Quantification of FITC-GMA4C fluorescence intensity. Bars show the mean green fluorescence intensity relative to non-treated cells and normalized to the number of cells. Values were measured using the Color Threshold tab in Fiji. […] (C) Quantification of FITC-GMA4C peptide uptake by cells. […] (D) Quantitative evaluation of flow cytometry signal intensity. Values were measured using FloJo flow cytometry software. […]
Background: In flow cytometry, cells or beads pass a laser one at a time.

Regarding `C[C@@H](O)[C@H](NC(=O)[C@H](CS)NC(=O)[C@H](Cc1ccccc1)NC(=O)[C@H](CS)NC(=O)[C@H](CCCNC(=N)N)NC(=O)[C@H](CCCNC(=N)N)NC(=O)[C@H](CCCNC(=N)N)NC(=O)[C@H](Cc1ccccc1)NC(=O)CNC(=O)[C@H](CCCNC(=N)N)NC(=O)[C@H](CS)NC(=O)[C@H](CCCNC(=N)N)NC(=O)CN)C(=O)N[C@H](C(=O)N[C@@H](Cc1c[nH]cn1)C(=O)N[C@@H](CS)C(=O)O)[C@@H](C)O` [GMA4C] (H-GRCRGFRRRCFCTTHC-OH; N-terminus and C-terminus assumed), in the test on HeLa cells [1], the “time at which significant uptake is observed” value was “under 15 min” and the “time to reach uptake equilibrium” value is at most 30 min.
On to fluorescein isothiocyanate [free-FITC], for which the “accumulation in the cell” value with HeLa cells [2] is on record as “only slightly accumulated”.
